Entries after “also recorded” stand apart in the source; their conditions may differ. Counter-ions that a name gives are not always drawn.
Tests used:
OATP1B1 = biological target: T1, OATP1B1 (Homo sapiens, UniProt Q9Y6L6); assay: Inhibition of uptake (SLC) transporters; type: in vitro ADME
T1 construct: expressed in transfected cells; host or cells: HEK293 cells

[1] = Log D distribution coefficient (PBS buffer/octanol); type: physicochemical
Description: Compound 1 has a Log D distribution coefficient at pH 7.2 of −0.07 (3 mL PBS Buffer: 1 mL Octanol) and −0.39 (2 mL PBS Buffer: 2 mL Octanol), where PBS is phosphate buffer solution.

OCT = biological target: T2, OCT (Homo sapiens, UniProt O15245); assay: Inhibition of uptake (SLC) transporters; type: in vitro ADME; conditions: OCT1; HEK293 cells, probe [14C]-tetraethylammonium bromide (5 μM), 0.3-600 μM tested
T2 construct: expressed in transfected cells; host or cells: HEK293 cells
T2 sequence (O15245 whole entry): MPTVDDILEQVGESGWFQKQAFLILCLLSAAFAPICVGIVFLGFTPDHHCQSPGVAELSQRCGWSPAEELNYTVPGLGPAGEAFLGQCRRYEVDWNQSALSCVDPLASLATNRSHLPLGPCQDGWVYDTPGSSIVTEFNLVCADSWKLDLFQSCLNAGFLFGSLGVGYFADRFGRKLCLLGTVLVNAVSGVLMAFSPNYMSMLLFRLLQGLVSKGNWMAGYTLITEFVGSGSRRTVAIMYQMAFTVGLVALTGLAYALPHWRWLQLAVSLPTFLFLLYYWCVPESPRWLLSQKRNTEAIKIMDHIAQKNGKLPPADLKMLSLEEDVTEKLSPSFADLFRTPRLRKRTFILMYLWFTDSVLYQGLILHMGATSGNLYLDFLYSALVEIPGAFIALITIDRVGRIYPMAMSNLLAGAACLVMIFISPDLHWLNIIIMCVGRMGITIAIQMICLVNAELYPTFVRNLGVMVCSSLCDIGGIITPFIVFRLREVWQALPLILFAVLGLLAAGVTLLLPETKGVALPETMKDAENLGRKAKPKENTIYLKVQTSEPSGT

[2] = test system: mouse model of severe incision; assay: Mouse model of severe incision; type: in vivo; conditions: 10 mg/kg IP daily for 15 days; Days 1, 3, 6, 8, 10, 13, 15 and 21 after incision; FIG. 13; mono-hydrochloride
Source text: Two incisional pain models were used to assess Compound 1 effects on hyperalgesia. The first model is referred to as the Brennan model in which, under anesthesia, a 1 cm longitudinal incision to the skin and underlying fascia of a rat hindpaw is made. The second is a variation but is a more invasive procedure in which the skin and muscle are spread apart using forceps which creates a longer-lasting hypersensitivity.
In a mouse model of severe incision (tissue and muscle spread with forceps), animals were at baseline for mechanical thresholds prior to incision and then given a daily dose of Compound 1 (10 mg/kg IP) or vehicle for 15 days.

[3] = Dog 28-day repeat dose PO study; type: in vivo
Description: Beagle dogs (4/sex/group plus 2/sex/group for control and high dose animals for recovery) were administered daily doses of 0, 100, 250 or 400 mg/kg/day of Compound 1 in 0.5% HPMC. […] Dogs in Group 1 (Vehicle Control) were bled once at approximately 2-4 hours post-dose on those days.

[4] = Dog 7-day repeat dose PO study; type: in vivo; conditions: plasma, N = 1
Description: The objective was to develop a preliminary toxicity profile of Compound 1 following daily oral (gavage) administration for 7 days to male and female dogs to support dose selection for a 28-day toxicity study in dogs. Doses were selected based on the results of the MTD phase. Dose levels were 0 (Vehicle Control), 200, 350 and 400 mg/kg (1 dog/sex/group). The vehicle was 0.5% aqueous HPMC.
The animals used in this study were returned to the holding colony

mouse incisional model = assay: Mouse incisional model (mimicking the Brennan protocol); type: in vivo; conditions: 10 mg/kg IP QD, Days 1 and 3 after incision
Description: In a mouse incisional model (mimicking the Brennan protocol), animals were baselined for mechanical thresholds prior to incision and then given a daily dose of Compound 1 (10 mg/kg IP QD) or vehicle for 7 days.

OAT3 = biological target: T3, OAT3 (Homo sapiens, UniProt Q8TCC7); assay: Inhibition of uptake (SLC) transporters; type: in vitro ADME
T3 construct: expressed in transfected cells; host or cells: HEK293 cells
T3 sequence (Q8TCC7 whole entry): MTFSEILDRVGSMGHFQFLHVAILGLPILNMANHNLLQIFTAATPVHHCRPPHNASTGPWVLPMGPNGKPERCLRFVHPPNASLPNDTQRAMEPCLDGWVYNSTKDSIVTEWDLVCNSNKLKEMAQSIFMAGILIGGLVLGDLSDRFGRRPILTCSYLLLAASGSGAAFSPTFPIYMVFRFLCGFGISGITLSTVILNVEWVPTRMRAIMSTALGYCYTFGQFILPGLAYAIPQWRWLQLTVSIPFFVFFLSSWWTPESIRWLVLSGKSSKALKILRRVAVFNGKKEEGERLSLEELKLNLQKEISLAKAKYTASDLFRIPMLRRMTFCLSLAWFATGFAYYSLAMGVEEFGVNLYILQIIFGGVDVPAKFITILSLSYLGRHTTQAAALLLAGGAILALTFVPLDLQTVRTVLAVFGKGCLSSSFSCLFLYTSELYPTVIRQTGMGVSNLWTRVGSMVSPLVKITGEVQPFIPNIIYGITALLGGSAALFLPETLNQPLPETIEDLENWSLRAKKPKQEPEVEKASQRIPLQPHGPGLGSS

in vivo = conditions: rat, po, 100 mg/kg; for concentration at 1 h: 1 h post-dose; for concentration at 2 h: 2 h post-dose; for concentration at 0.5 h: 0.5 h post-dose
Description: In both assays, a deuterated (Compound 1-d4) internal standard was used.
The objective of this non-GLP study was to determine the pharmacokinetics of Compound 1 after a single oral (gavage) dose in rats, and to determine if Compound 1 undergoes epimerization in the rat. Compound 1 was administered to CD® IGS [Crl:CD(SD)] (Sprague Dawley) rats (5/sex/group) as a single oral gavage dose of 100 mg/kg in a vehicle of 0.5% aqueous HPMC. Rats were dosed at a dose volume of 10 mL/kg body weight.

[5] = Cytotoxicity by lactate dehydrogenase (LDH) release; type: cell-based; conditions: dog, MDCKII control cells, read-out: percent cytotoxicity (LDH release)
[6] = female, 200 mg/kg, Day 1, 200 mg/kg PO, F
[7] = female, 200 mg/kg, Day 7, 200 mg/kg PO, F
[8] = female, 350 mg/kg, Day 1, 350 mg/kg PO, F
[9] = female, 350 mg/kg, Day 7, 350 mg/kg PO, F
[10] = female, 400 mg/kg, Day 1, 400 mg/kg PO, F
[11] = female, 400 mg/kg, Day 7, 400 mg/kg PO, F
[12] = male, 200 mg/kg, Day 1, 200 mg/kg PO, M
[13] = male, 200 mg/kg, Day 7, 200 mg/kg PO, M
[14] = male, 350 mg/kg, Day 1, 350 mg/kg PO, M
[15] = male, 350 mg/kg, Day 7, 350 mg/kg PO, M
[16] = male, 400 mg/kg, Day 1, 400 mg/kg PO, M
[17] = male, 400 mg/kg, Day 7, 400 mg/kg PO, M
[18] = female, Sprague Dawley, Compound 1 Concentration in rat plasma, 100 mg/kg single PO, individual animals
[19] = female, Sprague-Dawley (CD IGS, Crl:CD(SD))
[20] = male, Sprague Dawley, Compound 1 Concentration in rat plasma, 100 mg/kg single PO, individual animals
[21] = male, Sprague Dawley, Compound 1 Concentration in rat plasma, 100 mg/kg single PO, Average
[22] = male, Sprague-Dawley (CD IGS, Crl:CD(SD))

T1 sequence (Q9Y6L6 whole entry): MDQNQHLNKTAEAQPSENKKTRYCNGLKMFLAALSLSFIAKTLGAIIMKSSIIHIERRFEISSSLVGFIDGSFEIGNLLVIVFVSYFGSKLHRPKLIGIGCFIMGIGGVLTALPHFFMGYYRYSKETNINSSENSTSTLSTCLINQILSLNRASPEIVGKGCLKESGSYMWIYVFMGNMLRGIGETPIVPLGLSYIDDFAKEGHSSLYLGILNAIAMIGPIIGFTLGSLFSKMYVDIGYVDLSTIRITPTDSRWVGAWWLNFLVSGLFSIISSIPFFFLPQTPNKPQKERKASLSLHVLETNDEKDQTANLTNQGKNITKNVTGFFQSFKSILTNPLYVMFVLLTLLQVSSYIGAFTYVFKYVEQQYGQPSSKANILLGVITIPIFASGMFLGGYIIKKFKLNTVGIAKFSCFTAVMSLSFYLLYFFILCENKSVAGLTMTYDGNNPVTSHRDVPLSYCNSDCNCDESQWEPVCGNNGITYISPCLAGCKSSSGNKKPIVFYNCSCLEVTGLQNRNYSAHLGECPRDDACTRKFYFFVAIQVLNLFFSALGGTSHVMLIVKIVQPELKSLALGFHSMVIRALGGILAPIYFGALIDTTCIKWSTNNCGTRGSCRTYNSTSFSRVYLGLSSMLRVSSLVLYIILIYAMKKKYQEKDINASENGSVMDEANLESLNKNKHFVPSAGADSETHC

Question: What does the source list for `CC1(C)SC(Nc2ccccc2O)=N[C@@H]1C(=O)O` [Compound 1, (R)-2-(2-hydroxyphenylamino)-5,5-dimethyl-4,5-dihydrothiazole-4-carboxylic acid mono-hydrochloride]?
Answer: IC50 (OATP1B1; HEK293 cells, probe [3H]-estradiol-17β-glucuronide (0.05 μM), 0.3-600 μM tested): > 600 µM; transporter inhibition (OATP1B1; OATP1B1): does not inhibit; logD ([1]; pH 7.2, pH 7.2, 2 mL PBS Buffer: 2 mL Octanol): -0.39; logD ([1]; pH 7.2, pH 7.2, 3 mL PBS Buffer: 1 mL Octanol): -0.07; IC50 (OCT): > 600 µM; hyperalgesia [2]: protected from hyperalgesia; also recorded: did not experience hyperalgesia; Cmax ([3]; 28-day pivotal dog study, at some doses): over 100 μg/mL; Tmax ([3]; 28-day study, dog): ≤ 1 h; half-life ([3]; both sexes, beagle, dog, in vivo, po, t1/2): ~3.5 h; Tmax ([3]; both sexes, beagle, dog, in vivo, po, 100 and 250 mg/kg treatment groups, read-out: median tmax): 1 h; t1/2 ([3]; both, beagle, dog, in vivo, po): 3.5 h; Cmax ([3]; female, beagle, dog, in vivo, po, 100 mg/kg, Day 1, 100 mg/kg PO, F, read-out: Cmax): 69.3 µg/mL; Cmax ([3]; female, beagle, dog, in vivo, po, 100 mg/kg, Day 15, 100 mg/kg PO, F, read-out: Cmax): 53 µg/mL; Cmax ([3]; female, beagle, dog, in vivo, po, 100 mg/kg, Day 28, 100 mg/kg PO, F, read-out: Cmax): 60.8 µg/mL; Cmax ([3]; female, beagle, dog, in vivo, po, 250 mg/kg, Day 1, 250 mg/kg PO, F, read-out: Cmax): 101 µg/mL; Cmax ([3]; female, beagle, dog, in vivo, po, 250 mg/kg, Day 15, 250 mg/kg PO, F, read-out: Cmax): 94.6 µg/mL; Cmax ([3]; female, beagle, dog, in vivo, po, 250 mg/kg, Day 28, 250 mg/kg PO, F, read-out: Cmax): 89.5 µg/mL; Cmax ([3]; female, beagle, dog, in vivo, po, 400 mg/kg, Day 1, 400 mg/kg PO, F, read-out: Cmax): 129 µg/mL; Cmax ([3]; female, beagle, dog, in vivo, po, 400 mg/kg, Day 15, 400 mg/kg PO, F, read-out: Cmax): 123 µg/mL; Cmax ([3]; female, beagle, dog, in vivo, po, 400 mg/kg, Day 28, 400 mg/kg PO, F, read-out: Cmax): 131 µg/mL; Cmax ([3]; male, beagle, dog, in vivo, po, 100 mg/kg, Day 1, 100 mg/kg PO, M, read-out: Cmax): 49.9 µg/mL; Cmax ([3]; male, beagle, dog, in vivo, po, 100 mg/kg, Day 15, 100 mg/kg PO, M, read-out: Cmax): 50.4 µg/mL; Cmax ([3]; male, beagle, dog, in vivo, po, 100 mg/kg, Day 28, 100 mg/kg PO, M, read-out: Cmax): 45 µg/mL; Cmax ([3]; male, beagle, dog, in vivo, po, 250 mg/kg, Day 1, 250 mg/kg PO, M, read-out: Cmax): 104 µg/mL; Cmax ([3]; male, beagle, dog, in vivo, po, 250 mg/kg, Day 15, 250 mg/kg PO, M, read-out: Cmax): 88 µg/mL; Cmax ([3]; male, beagle, dog, in vivo, po, 250 mg/kg, Day 28, 250 mg/kg PO, M, read-out: Cmax): 105 µg/mL; Cmax ([3]; male, beagle, dog, in vivo, po, 400 mg/kg, Day 1, 400 mg/kg PO, M, read-out: Cmax): 128 µg/mL; Cmax ([3]; male, beagle, dog, in vivo, po, 400 mg/kg, Day 15, 400 mg/kg PO, M, read-out: Cmax): 112 µg/mL; Cmax ([3]; male, beagle, dog, in vivo, po, 400 mg/kg, Day 28, 400 mg/kg PO, M, read-out: Cmax): 125 µg/mL; AUC(0-t) [4, 6]: 582 µg·h/mL; Cmax [4, 6]: 152 µg/mL; half-life [4, 6]: 1.3 h; AUC(0-t) [4, 7]: 411 µg·h/mL; Cmax [4, 7]: 103 µg/mL; half-life [4, 7]: 1.5 h; AUC(0-t) [4, 8]: 834 µg·h/mL; Cmax [4, 8]: 228 µg/mL; half-life [4, 8]: 1.2 h; AUC(0-t) [4, 9]: 738 µg·h/mL; Cmax [4, 9]: 207 µg/mL; Tmax [4, 9]: 0.5 h; half-life [4, 9]: 2.4 h; AUC(0-t) [4, 10]: 464 µg·h/mL; Cmax [4, 10]: 109 µg/mL; Tmax [4, 10]: 1 h; AUC(0-t) [4, 11]: 751 µg·h/mL; Cmax [4, 11]: 183 µg/mL; half-life [4, 11]: 2.5 h; AUC(0-t) [4, 12]: 538 µg·h/mL; Cmax [4, 12]: 150 µg/mL; half-life [4, 12]: 1.1 h; AUC(0-t) [4, 13]: 540 µg·h/mL; Tmax [4, 13]: 1 h; half-life [4, 13]: 1.4 h; AUC(0-t) [4, 14]: 613 µg·h/mL; Cmax [4, 14]: 176 µg/mL; half-life [4, 14]: 1.1 h; AUC(0-t) [4, 15]: 591 µg·h/mL; Cmax [4, 15]: 184 µg/mL; Tmax [4, 15]: 1 h; half-life [4, 15]: 1.2 h; AUC(0-t) [4, 16]: 657 µg·h/mL; Cmax [4, 16]: 167 µg/mL; half-life [4, 16]: 1.2 h; AUC(0-t) [4, 17]: 210 µg·h/mL; Cmax [4, 17]: 69 µg/mL; Tmax [4, 17]: 1 h; half-life [4, 17]: 1.3 h; hyperalgesia (mouse incisional model): not hyperalgesic; IC50 (OAT3; HEK293 cells, probe [3H]-estrone-3-sulfate (0.05 μM), 0.3-600 μM tested): 174 µM; transporter inhibition (OAT3; OAT3): weakly inhibits; concentration at 1 h (in vivo; female, Sprague Dawley (CD IGS, Crl:CD(SD)), Compound 1 Concentration in rat plasma, Female, 100 mg/kg single PO, Average): 60.1 µg/mL; concentration at 2 h (in vivo; female, Sprague Dawley (CD IGS, Crl:CD(SD)), Compound 1 Concentration in rat plasma, Female, 100 mg/kg single PO, individual animals): 58.2 µg/mL; concentration at 4 h (in vivo; female, Sprague Dawley (CD IGS, Crl:CD(SD)), Compound 1 Concentration in rat plasma, Female, 100 mg/kg single PO, 4 h post-dose, Average): 22.6 µg/mL; concentration at 0.5 h (in vivo; [18]): 34.3 µg/mL; concentration at 1 h (in vivo; [18]): 53.9 µg/mL; Cmax (in vivo; [19]): 60 µg/mL; half-life (in vivo; [19]): 4 h; concentration at 0.5 h (in vivo; [20]): 13.8 µg/mL; concentration at 1 h (in vivo; [21]): 14.9 µg/mL; concentration at 2 h (in vivo; [21]): 14.3 µg/mL; concentration at 2 h (in vivo; [20]): 16.3 µg/mL; concentration at 8 h (in vivo; male, Sprague Dawley, Compound 1 Concentration in rat plasma, 100 mg/kg single PO, 8 h post-dose, individual animals): 1.61 µg/mL; Cmax (in vivo; [22]): 15 µg/mL; Tmax (in vivo; [22]): 1 h; half-life (in vivo; [22]): 7 h; cytotoxicity at 100 µM ([5]; 100 μM): 31.3%; cytotoxicity at 600 µM ([5]; 600 μM): 33.6%

Reference: patent US20200246316A1, “METHODS OF TREATING POST-SURGICAL PAIN WITH A THIAZOLINE ANTI-HYPERALGESIC AGENT” (CERSCI THERAPEUTICS, INC., priority 2019, published 2020)
